Results on 23 compounds are retold here after patent publication US9409893B2, “Heteroaryl derivatives and uses thereof” (Jacobus Pharmaceutical Company, Inc., priority 2012, dated 2016).

One assay relates to P. falciparum strain D6. As to the kind of experiment: [3H]-hypoxanthine growth inhibition assay, P. falciparum D6. It counts as cell-based. Conditions: Plasmodium falciparum. As to the method: (§1) The potential for antimalarial activity against Plasmodium falciparum was determined by measuring the incorporation of tritiated hypoxanthine into parasitized red blood cells.
(§2) Stock solutions of the test compounds and the reference drug chloroquine (CQ) (Sigma Chemicals C-6628, Lot #059H0919) were prepared in silanized glass vials with AquaSil™ (Pierce, USA) to minimize absorption of the compounds to glassware. All test compounds were dissolved in DMSO (Sigma Cat No. #D8418) to 1 mM concentration, whereas CQ was dissolved in 50% methanol at a concentration of 1.6 mg/ml (base). Stock solutions were stored at −20° C.
(§3) The P. falciparum laboratory adapted strains utilized in this project (Table 1) were in vitro cultured and routinely maintained in RPMI-1640-LPLF complete medium, which contained low concentrations of para-amino benzoic acid (0.0005 mg/L) and folic acid (0.01 mg/L).
(§4) The low concentration of folic acid in RPMI-1640-LPLF prevents inhibition of the compound if its activity targets the parasite's folate metabolic pathway. Parasites were cultured in human red blood cells (RBCs) in vitro at 37° C. in special gas mixture (5% O2, 5% CO2 and 90% N2) as described Trager and Jensen (1979 Science 193:673-675).
(§5) Base cultivation medium consisted of 10.4 g/L RPMI-1640-LPLF powder (Gibco BRL), 5.97 g/L HEPES buffer (MP Biomedicals, USA), 2.0 g/L D-glucose (BDH chemicals, Australia), 0.05 g/L hypoxanthine (Sigma, USA) and 40 mg/L gentamycin (Pfizer, Australia). The pH of the medium was adjusted to 6.9 and the solution was filtered using 0.2 μm pore size (AcroCap, Gelman Science, USA). Complete medium was prepared by adding sodium bicarbonate solution (final concentration, 0.21%) and drug-free heat-inactivated human plasma, pooled from various blood types, obtained from the Australian Red Cross Blood Service (Brisbane) (final concentration, 10%) to the base RPMI-1640-LPLF. For [^3H]-hypoxanthine inhibition growth assay, RPMI-1640-LPLF complete medium which lacked [^3H]-hypoxanthine ([^3H]-RPMI-1640-LPLF) was used to prevent uptake of hypoxanthine by parasites, as radioactive hypoxanthine uptake is measured as a surrogate marker of growth. All complete medium was used within three days of preparation. See DE (Para) SOP 002 for methodology.
(§6) Red blood cells (RBC) were required for P. falciparum parasites to proliferate in vitro. 0 (Rh+) type blood was obtained from the Australian Red Cross Blood Service. The RBC were washed twice in phosphate-buffered saline (PBS) and once in [^3H]-RPMI-1640-LPLF complete medium by centrifugation at 1,500×g for 5 min. Following the final wash, the haematocrit was measured as the percent of RBC to total culture volume. The haematocrit was adjusted to 50% by removing or adding [^3H]-RPMI-LPLF complete medium. See DE (Para) SOP 003 for methodology.
(§7) All P. falciparum strains were grown in RPMI-1640-LPLF complete medium at 4% haematocrit and 1% to 8% parasitaemia at 37° C. in sealed flasks in a gas mixture of 5% O2, 5% CO2 and 90% N2 (BOC Gases, Brisbane, Australia). For drug susceptibility assays cultures were routinely synchronized when the majority of parasites (>85%) were at early trophozoite (ring) stage. Synchronization involved removing the more mature erythrocytic parasite stages by lysis, resulting in the retention only of early trophozoite (ring) stages. Synchronization was performed by re-suspending the infected red blood cell (iRBC) pellet in 5 to 10 times its volume of 5% D-sorbitol (Bacto Laboratories Pty. Ltd., Australia) for 5 min (Lambros and Vanderberg, 1979 J Parasitol 65: 418-420). The mixture was centrifuged (1,500 rpm for 5 min) and the supernatant removed. The iRBC were washed twice using PBS buffer and once using [^3H]-RPMI-LPLF plain medium. Following synchronization, a new culture was prepared with an initial parasitaemia of 1% in RPMI-LPLF complete medium. See DE (Para) SOP 008 for methodology.

The test system of the next assay is P. falciparum strain W2. As to the kind of experiment: [3H]-hypoxanthine growth inhibition assay, P. falciparum W2. It counts as cell-based. Conditions: Plasmodium falciparum. As for the experimental part: as §1, §2, §3, §4, §5, §6, §7
[1] abbreviates: P. falciparum D6 (sensitive to chloroquine and pyrimethamine), [3H]-hypoxanthine incorporation, read-out: D6 IC50.
Setting [2] is: P. falciparum W2 (resistant to chloroquine and pyrimethamine), [3H]-hypoxanthine incorporation, read-out: W2 IC50.

pIC50: −log10 of the molar value. Where a name gives a salt, the structure may show the parent alone. Read-outs that look alike come from different tables or passages of the source.

Regarding `CC(C)(C)NCc1cc(C(C)(C)C)cc(-c2ccc(N3CCCC3)nc2)c1O` [Example 15, 4-(tert-Butyl)-2-((tert-butylamino)methyl)-6-(6-(pyrrolidin-1-yl)pyridin-3-yl)phenol dihydrochloride], the negative-log IC50 (pIC50) was 7.62 in the assay with P. falciparum strain D6 (D6, read-out: D6 IC50) and 7.80 in the assay on P. falciparum strain W2 (W2, read-out: W2 IC50).

For `COc1cc(-c2cc(C(C)(C)C)cc(CNC(C)(C)C)c2O)ccn1` [Example 16, 4-(tert-Butyl)-2-((tert-butylamino)methyl)-6-(2-methoxypyridin-4-yl)phenol dihydrochloride], the negative-log IC50 (pIC50) was 7.59 in the assay with P. falciparum strain D6 (D6, read-out: D6 IC50) and 7.96 with P. falciparum strain W2 (W2, read-out: W2 IC50).

Consider `COc1cncc(-c2cc(C(C)(C)C)cc(CNC(C)(C)C)c2O)c1` [Example 17, 4-(tert-Butyl)-2-((tert-butylamino)methyl)-6-(5-methoxypyridin-3-yl)phenol dihydrochloride], for which the negative-log IC50 (pIC50) with P. falciparum strain D6 (D6, read-out: D6 IC50) was 7.52; in the assay on P. falciparum strain W2 (W2, read-out: W2 IC50) it was 7.60.

In the case of `CC(C)(C)NCc1cc(C(C)(C)C)cc(-c2cncc(C(F)(F)F)c2)c1O` [Example 18, 4-(tert-Butyl)-2-((tert-butylamino)methyl)-6-(5-(trifluoromethyl)pyridin-3-yl)phenol 1.4 hydrochloride], the pIC50 in the assay with P. falciparum strain D6 (setting [1]) is 7.60; in the assay with P. falciparum strain W2 (setting [2]), 7.92.

For `CC(C)(C)NCc1cc(C(C)(C)C)cc(-c2ccnc(C(F)(F)F)c2)c1O` [Example 20, 4-(tert-Butyl)-2-((tert-butylamino)methyl)-6-(2-(trifluoromethyl)pyridin-4-yl)phenol hydrochloride], the negative-log IC50 (pIC50) in the assay on P. falciparum strain D6 (setting [1]) was 7.68; with P. falciparum strain W2 (setting [2]) it was 8.05.

Turning to `CC(C)(C)NCc1cc(C(C)(C)C)cc(-c2cncc(Cl)c2)c1O` [Example 21, 4-(tert-Butyl)-2-((tert-butylamino)methyl)-6-(5-chloropyridin-3-yl)phenol dihydrochloride], the pIC50 is 7.77 in the assay with P. falciparum strain D6 (D6, read-out: D6 IC50) and 8.10 in the assay on P. falciparum strain W2 (W2, read-out: W2 IC50).

On to `CC(C)(C)NCc1cc(C(C)(C)C)cc(-c2ccc(C(C)(C)C)nc2)c1O` [Example 22, 4-(tert-Butyl)-2-(6-(tert-butyl)pyridin-3-yl)-6-((tert-butylamino)methyl)phenol dihydrochloride], for which the pIC50 in the assay on P. falciparum strain D6 (D6, read-out: D6 IC50) is 7.19; in the assay with P. falciparum strain W2 (W2, read-out: W2 IC50), 7.62.

For `CC(C)(C)NCc1cc(C(C)(C)C)cc(-c2ccc(Cl)nc2)c1O` [Example 23, 4-(tert-Butyl)-2-((tert-butylamino)methyl)-6-(6-chloropyridin-3-yl)phenol hydrochloride], the negative-log IC50 (pIC50) with P. falciparum strain D6 (setting [1]) is 7.72; in the assay on P. falciparum strain W2 (setting [2]), 7.92.

In the case of `Cc1ccc(-c2cc(C(C)(C)C)cc(CNC(C)(C)C)c2O)nc1` [Example 25, 4-(tert-Butyl)-2-((tert-butylamino)methyl)-6-(5-methylpyridin-2-yl)phenol dihydrochloride], the pIC50 in the assay with P. falciparum strain D6 (D6, read-out: D6 IC50) was no more than 4.70; in the assay on P. falciparum strain W2 (W2, read-out: W2 IC50) it was no more than 4.70.

For `CC(C)(C)NCc1cc(C(C)(C)C)cc(-c2ccc(F)cn2)c1O` [Example 26, 4-(tert-Butyl)-2-((tert-butylamino)methyl)-6-(5-fluoropyridin-2-yl)phenol 1.35hydrochloride], the pIC50 with P. falciparum strain D6 (setting [1]) is 5.88; in the assay on P. falciparum strain W2 (setting [2]), 6.22.

`CC(C)(C)NCc1cc(C(C)(C)C)cc(-c2ncccc2F)c1O` [Example 27, 4-(tert-Butyl)-2-((tert-butylamino)methyl)-6-(3-fluoropyridin-2-yl)phenol 1.7hydrochloride]: the values for the pIC50 in the assay on P. falciparum strain D6 (setting [1]) and in the assay on P. falciparum strain W2 (setting [2]) were 5.16 and 5.46, respectively.

Regarding `CC(C)(C)NCc1cc(C(C)(C)C)cc(-c2cc(C(F)(F)F)ccn2)c1O` [Example 28, 4-(tert-Butyl)-2-((tert-butylamino)methyl)-6-(4-(trifluoromethyl)pyridin-2-yl)phenol hydrochloride], the pIC50 in the assay on P. falciparum strain D6 (setting [1]) was 6.45; in the assay with P. falciparum strain W2 (setting [2]), 6.95.

For `CC(C)(C)NCc1cc(C(C)(C)C)cc(-c2cccc(C(F)(F)F)n2)c1O` [Example 29, 4-(tert-Butyl)-2-((tert-butylamino)methyl)-6-(6-(trifluoromethyl)pyridin-2-yl)phenol hydrochloride], the negative logarithm of the IC50 (pIC50) in the assay with P. falciparum strain D6 (setting [1]) is 6.72; with P. falciparum strain W2 (setting [2]), 7.17.

Consider `Cc1ccc(-c2cc(C(C)(C)C)cc(CNC(C)(C)C)c2O)cn1` [Example 30, 4-(tert-Butyl)-2-((tert-butylamino)methyl)-6-(6-methylpyridin-3-yl)phenol dihydrochloride], for which the negative-log IC50 (pIC50) in the assay on P. falciparum strain D6 (D6, read-out: D6 IC50) is 7.17; with P. falciparum strain W2 (W2, read-out: W2 IC50), 7.38.

Turning to `CC(C)(C)NCc1cc(C(C)(C)C)cc(-c2ncccc2C(F)(F)F)c1O` [Example 31, 4-(tert-Butyl)-2-((tert-butylamino)methyl)-6-(3-(trifluoromethyl)pyridin-2-yl)phenol 1.7hydrochloride], the negative-log IC50 (pIC50) with P. falciparum strain D6 (setting [1]) is 5.26; in the assay with P. falciparum strain W2 (setting [2]) it was 5.64.

Regarding `CC(C)(C)NCc1cc(C(C)(C)C)cc(-c2cnc(C(F)(F)F)cn2)c1O` [Example 32, 4-(tert-Butyl)-2-((tert-butylamino)methyl)-6-(5-(trifluoromethyl)pyrazin-2-yl)phenol hydrochloride], the negative-log IC50 (pIC50) in the assay with P. falciparum strain D6 (setting [1]) is 7.42; in the assay with P. falciparum strain W2 (setting [2]), 7.96.

As for `CC(C)(C)NCc1cc(C(C)(C)C)cc(-c2ccncc2C(F)(F)F)c1O` [Example 35, 4-(tert-Butyl)-2-((tert-butylamino)methyl)-6-(3-(trifluoromethyl)pyridin-4-yl)phenol dihydrochloride], the negative logarithm of the IC50 (pIC50) was 6.26 in the assay on P. falciparum strain D6 (D6, read-out: D6 IC50) and 6.84 in the assay on P. falciparum strain W2 (W2, read-out: W2 IC50).

For `CC(C)(C)NCc1cc(C(C)(C)C)cc(-c2cnccc2C(F)(F)F)c1O` [Example 36, 4-(tert-Butyl)-2-((tert-butylamino)methyl)-6-(4-(trifluoromethyl)pyridin-3-yl)phenol 1.9hydrochloride], the negative-log IC50 (pIC50) in the assay with P. falciparum strain D6 (setting [1]) was 6.11; in the assay with P. falciparum strain W2 (setting [2]), 6.40.

Turning to `CC(C)(C)NCc1cc(-c2cccnc2)cc(-c2cccnc2)c1O` [Example 37, 2-((tert-Butylamino)methyl)-4,6-di(pyridin-3-yl)phenol], the pIC50 with P. falciparum strain D6 (setting [1]) and with P. falciparum strain W2 (setting [2]) was 5.30 throughout.

Turning to `CC(C)(C)NCc1cc(-c2ccc(C(F)(F)F)nc2)cc(-c2ccc(C(F)(F)F)nc2)c1O` [Example 38, 2-((tert-Butylamino)methyl)-4,6-bis(6-(trifluoromethyl)pyridin-3-yl)phenol], the results for the pIC50 in the assay on P. falciparum strain D6 (setting [1]) and in the assay on P. falciparum strain W2 (setting [2]) were 5.15 and 5.30, respectively.

With `CC(C)(C)NCc1cc(-c2ccc(Cl)c(C(F)(F)F)c2)cc(-c2ccc(C(F)(F)F)nc2)c1O` [Example 39, 3-((tert-Butylamino)methyl)-4′-chloro-3′-(trifluoromethyl)-5-(6-(trifluoromethyl)pyridin-3-yl)-[1,1′-biphenyl]-4-ol hydrochloride], the pIC50 was 7.14 in the assay on P. falciparum strain D6 (setting [1]) and 7.38 in the assay with P. falciparum strain W2 (setting [2]).

Take `CC(C)(C)NCc1cc(C(C)(C)C)cc(-c2ccc(C(F)(F)F)cn2)c1O` [Example 40, 4-(tert-Butyl)-2-((tert-butylamino)methyl)-6-(5-(trifluoromethyl)pyridin-2-yl)phenol]: the values for the pIC50 in the assay with P. falciparum strain D6 (setting [1]) and with P. falciparum strain W2 (setting [2]) were 6.64 and 7.10, respectively.

With `CN(Cc1cc(C(C)(C)C)cc(-c2ccc(C(F)(F)F)nc2)c1O)C(C)(C)C` [Example 45, 4-(tert-Butyl)-2-((tert-butyl(methyl)amino)methyl)-6-(6-(trifluoromethyl)pyridin-3-yl)phenol hydrochloride], the negative-log IC50 (pIC50) was 6.56 in the assay on P. falciparum strain D6 (setting [1]) and 6.97 in the assay with P. falciparum strain W2 (setting [2]).

A word on the pIC50: it is the IC50 on a negative log10 scale, so that one unit is a factor of ten.
